Values of other authors as cited in patent publication US20070009558A1, “Sugar-free storage-stable antihistaminic syrups” (priority 2004, published 2007).
Like-named read-outs stand apart in the source and are kept apart here.

For `Clc1ccc2c(c1)CCc1cccnc1C2=C1CCNCC1` [Desloratadine, 8-chloro-6,11-dihydro-11-(4-piperdinylidene)-5H-benzo[5,6]cyclohepta[1 ,2-b]pyridine], the solubility (in ethanol) is given as “very soluble”, the solubility (in propylene glycol) is given as “very soluble” and the solubility (in water) is given as “slightly soluble”.
